Read-outs that look alike come from different tables or passages of the source.
Experiments:
[1] = tested on: spontaneously hypertensive rats; experiment: Effectiveness in spontaneously hypertensive rats: systolic blood pressure by tail cuff method; format: in vivo; details: Rattus norvegicus, read-out: Change of systolic blood-pressures
Description: Experiment 1-Effectiveness of the compounds of Examples in spontaneously hypertensive rats
Systolic blood pressures were recorded by a modification of the tail cuff method described by I.M. Claxton et al., Eur. J.Pharmacology 37, 179 (1976). An oscilloscope or W+W BP recorder, model 8002, was used to display pulses.
Prior to all measurements rats were placed in a heated environment (33.5±0.5° C.) before transfer to a restraining cage. Each determination of blood pressure was the mean of at least 6 readings.
Spontaneously hypertensive rats (aged 12-18 weeks) with systolic blood pressures >170 mm Hg were considered hypertensive.
In the following table the results with certain compounds of the invention, which have been carried out with the above-described method, are mentioned. The numbers of the compounds correspond with those of the Examples.

[2] = tested on: right ventricle of the heart; experiment: Guinea Pigs Electrostimulation Test (arrhythmias by electrostimulation of the right ventricle of the heart); format: in vivo; details: Cavia porcellus, 0.5 h, 30 minutes before stimulation, read-out: Percent increase in voltage required for arrhythmia; for change in vivo at 32 mg/kg: standard dose 32 mg/kg intraduodenal
Description: Experiment 2-Effectiveness of the compounds of Examples in the Guinea Pigs Electrostimulation Test
Arrhythmias are induced in guinea pigs by electrostimulation of the right ventricle of the heart. The animals are anaesthesized with urethane (1.2 g/kg i.p.) and artificially respirated before a needle electrode is inserted in the right ventricle of the heart. Substances are given intraduodinally 30 minutes before the stimulation at a standard dose of 32 mg/kg. In some cases a different dose was used as indicated.
The voltage needed for induction of extra systoles in control animals (n=6) is compared with that required for induction of arrhythmias in treated animals (n=6).
This method is based on the work of L. Szekeres and G. J. Papp, Naunyn-Schmiedebergs Arch. Exp. Path. Pharmak., 245, 70 (1963).
In the table the results of certain compounds of the invention are mentioned, which have been carried out according to the method described above.
The numbers of the compounds correspond with those of the Examples.

Molecule `CC[C@H]1CN(CCCC(=O)c2ccc(F)cc2)CC[C@H]1CCCc1cc(C(F)(F)F)nc2ccccc12` [Compound 50] has a change in vivo at 10 mg/kg ([1]; 1 h) of -4%, a change in vivo at 10 mg/kg ([1]; 2 h) of -16% and a change in vivo at 10 mg/kg ([1]; 4 h) of -16%. The change in vivo at 10 mg/kg ([1]; 6 h) was -13%.
For `CCCN1CC[C@@H](CCC(O)c2cc(C)nc3ccc(OC)cc23)[C@@H](CC)C1` (stereo partly shown) [Compound 40, N-propyl-2'-methyl-hydroquinicinol-1], the change in vivo at 16 mg/kg ([2]; intraduodenal) was 44%.
Work on `CCCCCN1CC[C@@H](CC(O)Cc2cc(C(F)(F)F)nc3ccccc23)[C@@H](CC)C1` (stereo partly shown) [Compound 61] yielded a change in vivo at 8 mg/kg ([2]; intraduodenal) of 11%, a change in vivo at 10 mg/kg ([1]; 1 h) of -8% and a change in vivo at 10 mg/kg ([1]; 2 h) of -10%. The change in vivo at 10 mg/kg ([1]; 4 h) was -13%, the change in vivo at 10 mg/kg ([1]; 6 h) was -12% and the change in vivo at 10 mg/kg ([1]; 24 h) was -7%.
Work on `CC[C@H]1CN(CCCC(c2ccc(F)cc2)c2ccc(F)cc2)CC[C@H]1CC(O)Cc1cc(OC)nc2ccccc12` (stereo partly shown) [Compound 55] yielded a change in vivo at 10 mg/kg ([1]; 1 h) of -11%, a change in vivo at 10 mg/kg ([1]; 2 h) of -5% and a change in vivo at 10 mg/kg ([1]; 4 h) of -7%. The change in vivo at 10 mg/kg ([1]; 6 h) was -10% and the change in vivo at 10 mg/kg ([1]; 24 h) was -2%.
`CCCCCN1CC[C@@H](CCCc2cc(C)nc3ccccc23)[C@@H](CC)C1` [Compound 44, N-pentyl-2'-methyl-desoxo-hydrocinchonicine] showed a change in vivo at 100 mg/kg ([1]; 1 h) of 2%, a change in vivo at 100 mg/kg ([1]; 2 h) of -15% and a change in vivo at 100 mg/kg ([1]; 4 h) of -30%. For the same molecule, the change in vivo at 100 mg/kg ([1]; 6 h) was -43% and the change in vivo at 100 mg/kg ([1]; 24 h) was -6%.
Molecule `CC[C@H]1CN(CC(C)(C)O)CC[C@H]1CCC(=O)c1cc(C(C)C)nc2ccccc12` [Compound 36, N-(2-hydroxy-2-methylpropyl)-2'-isopropylhydrocinchonicine.bioxalate] has a change in vivo at 32 mg/kg [2] of 91%.
For `CCCCCN1CC[C@@H](CCC(=O)c2cc(CCC)nc3ccccc23)[C@@H](CC)C1` [Compound 31, N-pentyl-2'-propyl-hydrocinchonicine], the change in vivo at 32 mg/kg [2] was 31%.
`CCCN1CC[C@@H](CC(O)Cc2cc(OC)nc3ccc(OC)cc23)[C@@H](CC)C1` (stereo partly shown) [Compound 56] was tested, and the change in vivo at 20 mg/kg ([2]; at 20 mg/kg, intraduodenal) was 112%.
Molecule `CC[C@H]1CN(CCCC(=O)c2ccc(F)cc2)CC[C@H]1CCCc1cc(C)nc2ccccc12` [Compound 46, N-[3-(4-fluorobenzoyl)propyl]-2'-methyl-desoxo-hydrocinchonicine] has a change in vivo at 10 mg/kg ([1]; 1 h) of -22%, a change in vivo at 10 mg/kg ([1]; 2 h) of -24% and a change in vivo at 10 mg/kg ([1]; 4 h) of -20%. It also gave a change in vivo at 10 mg/kg ([1]; 6 h) of -20% and a change in vivo at 10 mg/kg ([1]; 24 h) of -1%.
Molecule `CC[C@H]1CN(CCCC(=O)c2ccccc2)CC[C@H]1CC(O)Cc1cc(OC)nc2ccccc12` (stereo partly shown) [Compound 54, N-(3-benzoylpropyl)-2'-methoxy-hydrocinchonicinol-2] has a change in vivo at 32 mg/kg [2] of 16%, a change in vivo at 10 mg/kg ([1]; 1 h) of -17% and a change in vivo at 10 mg/kg ([1]; 2 h) of -1%. The change in vivo at 10 mg/kg ([1]; 4 h) was -16%, the change in vivo at 10 mg/kg ([1]; 6 h) was -16% and the change in vivo at 10 mg/kg ([1]; 24 h) was 7%.
`CCCc1cc(C(O)CC[C@@H]2CCN(CCC)C[C@@H]2CC)c2ccccc2n1` (stereo partly shown) [Compound 41, N-propyl-2'-propyl-hydrocinchonicinol-1] gave a change in vivo at 8 mg/kg ([2]; intraduodenal) of 101%, a change in vivo at 10 mg/kg ([1]; 1 h) of -6% and a change in vivo at 10 mg/kg ([1]; 2 h) of -11%. For the same molecule, the change in vivo at 10 mg/kg ([1]; 4 h) was -15%, the change in vivo at 10 mg/kg ([1]; 6 h) was -17% and the change in vivo at 10 mg/kg ([1]; 24 h) was 3%.
Molecule `CCCN1CC[C@@H](CCCc2cc(O)nc3ccc(OC)cc23)[C@@H](CC)C1` [Compound 49] has a change in vivo at 16 mg/kg ([2]; intraduodenal) of 21%.
For `CCCOc1cc(C(=O)CC[C@@H]2CCN(C)C[C@@H]2CC)c2ccccc2n1` [Compound 51, N-methyl-2'-propoxy-hydrocinchonicine.bioxalate], the change in vivo at 32 mg/kg [2] was -5%, the change in vivo at 3 mg/kg ([1]; 1 h) was -1% and the change in vivo at 3 mg/kg ([1]; 2 h) was 0%. It also gave a change in vivo at 3 mg/kg ([1]; 4 h) of -7%, a change in vivo at 3 mg/kg ([1]; 6 h) of -13% and a change in vivo at 3 mg/kg ([1]; 24 h) of -1%.
`CCCCCN1CC[C@@H](CCC(=O)c2cc(C)nc3ccccc23)[C@@H](CC)C1` [Compound 27] was tested, and the change in vivo at 32 mg/kg [2] was -2%, the change in vivo at 100 mg/kg ([1]; 1 h) was -1% and the change in vivo at 100 mg/kg ([1]; 2 h) was -13%. It also gave a change in vivo at 100 mg/kg ([1]; 4 h) of -28%, a change in vivo at 100 mg/kg ([1]; 6 h) of -16% and a change in vivo at 100 mg/kg ([1]; 24 h) of -3%.
Work on `C=C[C@H]1CN(CCCC(=O)c2ccc(F)cc2)CC[C@H]1CCC(=O)c1cc(C)nc2ccccc12` [Compound 28] yielded a change in vivo at 10 mg/kg ([1]; 1 h) of -5%, a change in vivo at 10 mg/kg ([1]; 2 h) of -2% and a change in vivo at 10 mg/kg ([1]; 4 h) of -10%. It also gave a change in vivo at 10 mg/kg ([1]; 6 h) of -11% and a change in vivo at 10 mg/kg ([1]; 24 h) of 5%.
Work on `CCCc1cc(C(=O)CC[C@@H]2CCN(CCC)C[C@@H]2CC)c2ccccc2n1` [Compound 30, N-propyl-2'-propyl-hydrocinchonicine] yielded a change in vivo at 8 mg/kg ([2]; intraduodenal) of 60%.
`CCCN1CC[C@@H](CC(O)Cc2cc(C(F)(F)F)nc3ccccc23)[C@@H](CC)C1` (stereo partly shown) [Compound 58, N-propyl-2'-trifluoromethyl-hydrocinchonicinol-2] gave a change in vivo at 10 mg/kg ([2]; at 10 mg/kg, intraduodenal) of 133%.
For `CCCCCN1CC[C@@H](CC(=O)Cc2cc(C(F)(F)F)nc3ccccc23)[C@@H](CC)C1` [Compound 64, 1-(2-Trifluoromethyl-4-quinolyl)-3-[3(R)-ethyl-N-pentyl-4(S)-piperidyl]-propanone-2.bifumarate], the change in vivo at 100 mg/kg ([1]; 1 h) was -5%, the change in vivo at 100 mg/kg ([1]; 2 h) was -23% and the change in vivo at 100 mg/kg ([1]; 4 h) was -17%. It also gave a change in vivo at 100 mg/kg ([1]; 6 h) of -13% and a change in vivo at 100 mg/kg ([1]; 24 h) of -8%.
`CC[C@H]1CN(CCCC(=O)c2ccc(F)cc2)CC[C@H]1CCCc1cc(C)nc2ccc(OCCC(C)C)cc12` [Compound 47, N-[3-(4-fluorobenzoyl)propyl]-2'methyl-6'-isopentoxy-oxy-desoxo-hydrocinchonicine] was tested, and the change in vivo at 10 mg/kg ([1]; 1 h) was -26%, the change in vivo at 10 mg/kg ([1]; 2 h) was -21% and the change in vivo at 10 mg/kg ([1]; 4 h) was -30%. The change in vivo at 10 mg/kg ([1]; 6 h) was -22% and the change in vivo at 10 mg/kg ([1]; 24 h) was 0%.
`CC[C@H]1CN(CCCC(=O)c2ccccc2)CC[C@H]1CCC(=O)c1cc(C)nc2ccccc12` [Compound 25, N-(3-benzoylpropyl)-2'-methyl-hydrocinchonicine.bifumarate] showed a change in vivo at 32 mg/kg [2] of 5%, a change in vivo at 100 mg/kg ([1]; 1 h) of -16% and a change in vivo at 100 mg/kg ([1]; 2 h) of -25%. For the same molecule, the change in vivo at 100 mg/kg ([1]; 4 h) was -9%, the change in vivo at 100 mg/kg ([1]; 6 h) was -5% and the change in vivo at 100 mg/kg ([1]; 24 h) was 2%.
`CC[C@H]1CN(CC(C)(C)O)CC[C@H]1CCC(=NOC)c1cc(C)nc2ccccc12` [Compound 66, N-(2-Hydroxy-2-methylpropyl)-2'-methyl-hydrocinchonicine-O-methyl oxime ether.bioxalate] was tested, and the change in vivo at 16 mg/kg ([2]; intraduodenal) was 43%.
In the case of `CCCc1cc(C(O)CC[C@@H]2CCN(CCC)C[C@@H]2CC)c2cc(OC)ccc2n1` (stereo partly shown) [Compound 42, N-propyl-2'-propyl-hydroquinicinol-1], the change in vivo at 16 mg/kg ([2]; intraduodenal) is reported as 74%.
`CC[C@H]1CN(CCCC(=O)c2ccccc2)CC[C@H]1CCCc1cc(C)nc2ccccc12` [Compound 45, N-(3-benzoylpropyl)-2'-methyl-desoxo-hydrocinchonicine] showed a change in vivo at 10 mg/kg ([1]; 1 h) of -14%, a change in vivo at 10 mg/kg ([1]; 2 h) of -6% and a change in vivo at 10 mg/kg ([1]; 4 h) of -14%. For the same molecule, the change in vivo at 10 mg/kg ([1]; 6 h) was -21% and the change in vivo at 10 mg/kg ([1]; 24 h) was -2%.
In the case of `CCCN1CC[C@@H](CC(O)Cc2cc(C(F)(F)F)nc3ccccc23)[C@@H](CC)C1` (stereo partly drawn) [Compound 59, 1-(2-trifluoromethyl-4-quinolyl)-3-[3(R)-ethyl-N-propyl-4(S)-piperidyl]-propanol-2], the change in vivo at 4 mg/kg ([2]; at 4 mg/kg, intraduodenal) is reported as 55%.
For `CC[C@H]1CN(C)CC[C@H]1CCC(=O)c1cc(OC)nc2ccccc12` [Compound 52, 2'-Methoxy-N-methyl-hydrocinchonicine.bioxalate], the change in vivo at 8 mg/kg ([2]; intraduodenal) was 25%.
`CCCN1CC[C@@H](CC(O)Cc2cc(C(F)(F)F)nc3ccccc23)[C@@H](CC)C1` (stereo partly shown) [Compound 60, N-propyl-2'-trifluoromethyl-hydrocinchonicinol-2] gave a change in vivo at 8 mg/kg ([2]; intraduodenal) of 137%.
For `CCCN1CC[C@@H](CCCc2cc(O)nc3ccccc23)[C@@H](CC)C1` [Compound 48], the change in vivo at 16 mg/kg ([2]; intraduodenal) was 19%.

Reference: patent publication US4442106A, “Quinoline derivatives, pharmaceutical compositions containing such compounds, and methods of treating cardiovascular conditions with them” (ACF Chemiefarma N.V., priority 1980, dated 1984)
